Laboratory results taken from patent publication US8569509B2, “Thiazole-4-carboxylic acid esters and thioesters as plant protection agents” (priority 2008, dated 2013).

Experiment: log P determination (HPLC, calibration with unbranched alkan-2-ones)
Format: physicochemical
Settings: * LC-MS determination in the acidic range at pH 2.7, 0.1% aqueous formic acid and acetonitrile, linear gradient 10% to 95% acetonitrile
Description: The calibration is carried out using unbranched alkan-2-ones (having 3 to 16 carbon atoms) with known log P values (determination of the log P values by the retention times using linear interpolation between two successive alkanones). The lambda-maX values were determined in the maxima of the chromatographic signals using the UV spectra from 200 nm to 400 nm.

Structure (SMILES)	log p
Cc1cc(C)n(C(C)(C)C(=O)N2CCC(c3nc(C(=O)OC(C)c4ccc(F)cc4)cs3)CC2)n1 (racemic) [compound 403]	3.47*
Cc1cc(C)n(C(C)(C)C(=O)N2CCC(c3nc(C(=O)OCCc4ccc(F)cc4)cs3)CC2)n1 [compound 405]	3.42*
Cc1cc(C)n(C(C)(C)C(=O)N2CCC(c3nc(C(=O)OCc4ccncc4)cs3)CC2)n1 [compound 442]	1.33*
Cc1cc(C)n(C(C)(C)C(=O)N2CCC(c3nc(C(=O)OC[Si](C)(C)C)cs3)CC2)n1 [compound 369]	3.84*

Same assay, conditions: * LC-MS determination in the acidic range at pH 2.7, 0.1% aqueous formic acid and acetonitrile, linear gradient 10% to 95% acetonitrile, reversed-phase C 18

Structure (SMILES)	log p
Cc1c(Cl)c(C(F)(F)F)nn1CC(=O)N1CCC(c2nc(C(=O)OC3CCCCC3)cs2)CC1 [compound 145]	4.17*
Cc1c(Cl)c(C(F)(F)F)nn1CC(=O)N1CCC(c2nc(C(=O)Oc3cccc4ccccc34)cs2)CC1 [compound 152]	4.17*
Cc1c(Cl)c(C(F)(F)F)nn1CC(=O)N1CCC(c2nc(C(=O)Oc3ccc4ccccc4c3)cs2)CC1 [compound 153]	4.17*
Cc1c(Cl)c(C(F)(F)F)nn1CC(=O)N1CCC(c2nc(C(=O)OC3CCCC3)cs2)CC1 [compound 146]	3.84*
Cc1c(Cl)c(C(F)(F)F)nn1CC(=O)N1CCC(c2nc(C(=O)OCc3ccccc3)cs2)CC1 [compound 154]	3.73*

Same assay, conditions: * LC-MS determination in the acidic range at pH 2.7, mobile phases 0.1% aqueous formic acid and acetonitrile (0.1% formic acid), linear gradient 10% to 95% acetonitrile; reversed-phase C 18 HPLC

Structure (SMILES)	log p
Cc1cc(C(F)(F)F)nn1CC(=O)N1CCC(c2nc(C(=O)OCc3cccnc3)cs2)CC1 [compound 780]	1.74*
Cc1cc(C(F)(F)F)nn1CC(=O)N1CCC(c2nc(C(=O)OC(C)c3ccc4ccccc4c3)cs2)CC1 (stereo not shown) [compound 786]	4.18*
Cc1cc(C)n(C(C)(C)C(=O)N2CCC(c3nc(C(=O)OC4CC(C)CC(C(C)C)C4)cs3)CC2)n1 (stereo not shown) [compound 802]	5.58*
Cc1cc(C(F)(F)F)nn1CC(=O)N1CCC(c2nc(C(=O)OCc3c(Cl)cc(Cl)cc3Cl)cs2)CC1 [compound 818]	4.53*
CCCCC(CC)COC(=O)c1csc(C2CCN(C(=O)C(C)(C)n3nc(C)cc3C)CC2)n1 (stereo not shown) [compound 806]	5.08*
CC(C)(C)c1cc(C(F)(F)F)n(CC(=O)N2CCC(c3nc(C(=O)OCC4CCCCC4)cs3)CC2)n1 [compound 847]	4.75*
Cc1cc(C(F)(F)F)nn1CC(=O)N1CCC(c2nc(C(=O)OCc3ccccc3C(F)(F)F)cs2)CC1 [compound 836]	3.84*
Cc1cc(C(F)(F)F)nn1CC(=O)N1CCC(c2nc(C(=O)OC/C=C/c3ccccc3)cs2)CC1 [compound 779]	3.74*
CC=CC(CC)OC(=O)c1csc(C2CCN(C(=O)C(C)(C)n3nc(C)cc3C)CC2)n1 (mixture of isomers) [compound 799]	3.78*
Cc1cc(C(F)(F)F)nn1CC(=O)N1CCC(c2nc(C(=O)Oc3ccccc3-c3ccccc3)cs2)CC1 [compound 821]	3.96*
CC(C(=O)N1CCC(c2nc(C(=O)Oc3cccc4ccccc34)cs2)CC1)n1ccc(C(F)(F)F)n1 (stereo not shown) [compound 773]	3.87*
CC(C)c1cc(C(F)(F)F)n(CC(=O)N2CCC(c3nc(C(=O)OCC4CCCCC4)cs3)CC2)n1 [compound 851]	4.35*
O=C(Oc1cccc2ccccc12)c1csc(C2CCN(C(=O)Cn3nc(C(F)(F)F)cc3-c3ccccc3)CC2)n1 [compound 777]	4.50*
Cc1cc(C(F)(F)F)nn1CC(=O)N1CCC(c2nc(C(=O)OCc3ccc(Cl)c(Cl)c3)cs2)CC1 [compound 775]	4.09*
Cc1cc(C(F)(F)F)nn1CC(=O)N1CCC(c2nc(C(=O)OCc3ccccc3OC(F)(F)F)cs2)CC1 [compound 837]	3.95*

Same assay, conditions: * LC-MS determination in the acidic range, pH 2.7, 0.1% aqueous formic acid and acetonitrile, linear gradient 10% to 95% acetonitrile

Structure (SMILES)	log p
Cc1cc(C(F)(F)F)nn1CC(=O)N1CCC(c2nc(C(=O)OCc3ccc(Cl)cc3Cl)cs2)CC1 [compound 20]	3.69*
O=C(OC1CCCc2ccccc21)c1csc(C2CCN(C(=O)Cn3ccc(C(F)(F)F)n3)CC2)n1 (stereo not shown) [compound 89]	3.68*
Cc1cc(C(F)(F)F)nn1CC(=O)N1CCC(c2nc(C(=O)OC3CCCC3)cs2)CC1 [compound 3]	3.40*
Cc1cc(C(F)(F)F)nn1CC(=O)N1CCC(c2nc(C(=O)OC3CCc4ccccc43)cs2)CC1 (stereo not shown) [compound 8]	3.76*
O=C(OCc1ccccc1)c1csc(C2CCN(C(=O)Cn3ccc(C(F)(F)F)n3)CC2)n1 [compound 94]	2.99*
Cc1cc(C(F)(F)F)nn1CC(=O)N1CCC(c2nc(C(=O)OCc3cccc(C(F)(F)F)c3)cs2)CC1 [compound 25]	3.81*
Cc1cc(C(F)(F)F)nn1CC(=O)N1CCC(c2nc(C(=O)OCc3ccc(F)cc3)cs2)CC1 [compound 12]	3.35*
O=C(OC1CCc2ccccc21)c1csc(C2CCN(C(=O)Cn3ccc(C(F)(F)F)n3)CC2)n1 (stereo not shown) [compound 91]	3.37*

Same assay, conditions: pH 2.7; read-out: log P (pH 2.7)

Structure (SMILES)	chromatographic logP
O=C(OC1CCCCC1)c1csc(C2CCN(C(=O)Cn3nc(C(F)F)cc3C(F)F)CC2)n1 [compound 811, Cyclohexyl 2-(1-{[3,5-bis(difluoromethyl)-1H-pyrazol-1-yl]acetyl}piperidin-4-yl)-1,3-thiazole-4-carboxylate]	3.64
Cc1cc(C(F)(F)F)nn1CC(=O)N1CCC(c2nc(C(=O)Oc3cccc4ccccc34)cs2)CC1 [compound 227, 1-Naphthyl 2-(1-{[5-methyl-3-(trifluoromethyl)-1H-pyrazol-1-yl]acetyl}piperidin-4-yl)-1,3-thiazole-4-carboxylate]	3.75
CCOC(=O)c1csc(C2CCN(C(=O)Cn3ccc(C(F)(F)F)n3)CC2)n1 [IV-2, Ethyl 2-(1-{[3-(trifluoromethyl)-1H-pyrazol-1-yl]acetyl}piperidin-4-yl)-1,3-thiazole-4-carboxylate]	2.41
Cc1c(Cl)c(C(F)(F)F)nn1CC(=O)N1CCC(c2nc(C(=O)O)cs2)CC1 [III-5, 2-(1-{[4-Chloro-5-methyl-3-(trifluoromethyl)-1H-pyrazol-1-yl]acetyl}piperidin-4-yl)-1,3-thiazole-4-carboxylic acid]	2.26
Cc1cc(C(F)(F)F)nn1CC(=O)N1CCCC(c2nc(C(=O)O)cs2)C1 (stereo not shown) [III-3, 2-(1-{[5-Methyl-3-(trifluoromethyl)-1H-pyrazol-1-yl]acetyl}piperidin-3-yl)-1,3-thiazole-4-carboxylic acid]	1.9
CC(C)(C)c1cc(C(F)(F)F)n(CC(=O)O)n1 [V-1, [3-tert-Butyl-5-(trifluoromethyl)-1H-pyrazol-1-yl]acetic acid]	2.45
CCOC(=O)Cn1nc(C(F)(F)C(F)(F)F)cc1C(C)(C)C [XVI-4, Ethyl [5-tert-butyl-3-(pentafluoroethyl)-1H-pyrazol-1-yl]acetate]	4.05
CCOC(=O)c1csc(C2CCN(C(=O)Cn3nc(C(F)(F)F)c(Cl)c3C)CC2)n1 [IV-6, Ethyl 2-(1-{[4-chloro-5-methyl-3-(trifluoromethyl)-1H-pyrazol-1-yl]acetyl}piperidin-4-yl)-1,3-thiazole-4-carboxylate]	3.17
CC(C)(C)c1cc(C(F)(F)C(F)(F)F)[nH]n1 [XVIII-1, 3-tert-Butyl-5-(pentafluoroethyl)-1H-pyrazole]	3.23

Same assay, conditions: reversed-phase (C18) HPLC column; * LC-MS determination in the acidic range, pH 2.7, 0.1% aqueous formic acid / acetonitrile gradient; read-out: log p

Structure (SMILES)	chromatographic logP
Cc1cc(C(F)(F)F)nn1CC(=O)N1CCC(c2nc(C(=O)Oc3cccc4ccccc34)cs2)CC1 [compound 227, 1-Naphthyl 2-(1-{[5-methyl-3-(trifluoromethyl)-1H-pyrazol-1-yl]acetyl}piperidin-4-yl)-1,3-thiazole-4-carboxylate]	3.75

Same assay, conditions: reversed-phase C18 HPLC column; * LC-MS determination in the acidic range at pH 2.7, mobile phases 0.1% aqueous formic acid and acetonitrile (0.1% formic acid), linear gradient 10% to 95% acetonitrile; reversed-phase C 18 HPLC; read-out: log p

Structure (SMILES)	chromatographic logP
O=C(OC1CCCCC1)c1csc(C2CCN(C(=O)Cn3nc(C(F)F)cc3C(F)F)CC2)n1 [compound 811, Cyclohexyl 2-(1-{[3,5-bis(difluoromethyl)-1H-pyrazol-1-yl]acetyl}piperidin-4-yl)-1,3-thiazole-4-carboxylate]	3.64
